# Assay results from paper PMC7587356, “High-Throughput Screening for Inhibitors of the SARS-CoV-2 Protease Using a FRET-Biosensor” (Molecules, 2020).
# Counter-ions that a name gives are not always drawn. Like-named read-outs stand apart in the source and are kept apart here.
# Target: SARS-CoV-2 3CLpro (Severe acute respiratory syndrome coronavirus 2, UniProt P0DTD1)
# Experiment: biochemical
# Format: biochemical
# Set-up: Replicate_1 / Replicate_2 / mean / mean (LOPAC_screen_w_protease): unit not given here
# Settings: for inhibition at 5 µM: 4 h
# [1] = sheet LOPAC_screen_w_protease, primary screen with protease, 5 µM, mean of two replicates
# [2] = sheet LOPAC_screen_w_protease, primary screen with protease, 5 µM, replicate 1
# [3] = sheet LOPAC_screen_w_protease, primary screen with protease, 5 µM, replicate 2
# [4] = sheet LOPAC_screen_w_protease, primary screen at 5 µM, mean of two replicates
# [5] = sheet LOPAC_screen_w_protease, primary screen at 5 µM, replicate 1
# [6] = sheet LOPAC_screen_w_protease, primary screen at 5 µM, replicate 2
# [7] = LOPAC1280 primary screen with protease, 5 µM compound, mean of the two replicates
# [8] = LOPAC1280 primary screen with protease, 5 µM compound, replicate 1
# [9] = LOPAC1280 primary screen with protease, 5 µM compound, replicate 2
# [10] = sheet LOPAC_screen_w_protease, primary screen with protease, compound at 5 µM, mean of two replicates
# [11] = sheet LOPAC_screen_w_protease, primary screen with protease, compound at 5 µM, replicate 1
# [12] = sheet LOPAC_screen_w_protease, primary screen with protease, compound at 5 µM, replicate 2
# [13] = sheet LOPAC_screen_w_protease, LOPAC1280 at 5 µM, mean of two replicates
# [14] = sheet LOPAC_screen_w_protease, LOPAC1280 at 5 µM, replicate 1
# [15] = sheet LOPAC_screen_w_protease, LOPAC1280 at 5 µM, replicate 2
# [16] = sheet LOPAC_screen_w_protease, primary screen with protease, mean of two replicates
# [17] = sheet LOPAC_screen_w_protease, primary screen with protease, replicate 1
# [18] = sheet LOPAC_screen_w_protease, primary screen with protease, replicate 2
# [19] = sheet LOPAC_screen_w_protease, LOPAC1280 primary screen at 5 µM, with protease, replicate 1
# [20] = sheet LOPAC_screen_w_protease, LOPAC1280 primary screen at 5 µM, with protease, replicate 2
# [21] = sheet LOPAC_screen_w_protease, LOPAC1280 primary screen at 5 µM, with protease, mean of the two replicates
# [22] = LOPAC1280 primary screen with protease, 5 µM compound, replicate 1, read-out: Replicate_1 (LOPAC_screen_w_protease)
# [23] = LOPAC1280 primary screen with protease, 5 µM compound, replicate 2, read-out: Replicate_2 (LOPAC_screen_w_protease)
# [24] = sheet LOPAC_screen_w_protease, LOPAC1280 primary screen at 5 µM, with protease, mean of the two replicates, read-out: mean
# [25] = sheet LOPAC_screen_w_protease, LOPAC1280 primary screen at 5 µM, with protease, replicate 1, read-out: Replicate_1
# [26] = sheet LOPAC_screen_w_protease, LOPAC1280 primary screen at 5 µM, with protease, replicate 2, read-out: Replicate_2
smiles,measurement,setting,value
Brc1ccc([C@H]2CN3CCSC3=N2)cc1.O=C(O)C(=O)O [S(-)-p-Bromotetramisole oxalate],mean,[1],-0.07526
same,Replicate_1,[2],0.5493
same,Replicate_2,[3],-0.6998
N[C@@H](Cn1cc(I)c(=O)[nH]c1=O)C(=O)O [S-5-Iodowillardiine],mean (LOPAC screen with protease),[4],6.582
same,Replicate_1 (LOPAC screen with protease),[5],5.993
same,Replicate_2 (LOPAC screen with protease),[6],7.171
Nc1nc(SCc2ccc([N+](=O)[O-])cc2)c2ncn([C@@H]3O[C@H](CO)[C@@H](O)[C@H]3O)c2n1 [S-(4-Nitrobenzyl)-6-thioguanosine],mean,[1],-0.2707
same,Replicate_1,[2],0.3471
same,Replicate_2,[3],-0.8885
O=[N+]([O-])c1ccc(CSc2ncnc3c2ncn3[C@@H]2O[C@H](CO)[C@@H](O)[C@H]2O)cc1 [S-(4-Nitrobenzyl)-6-thioinosine],mean,"sheet LOPAC_screen_w_protease, LOPAC1280 primary screen with protease, 5 µM compound, mean of the two replicates",4.84
same,Replicate_1,"sheet LOPAC_screen_w_protease, LOPAC1280 primary screen with protease, 5 µM compound, replicate 1",5.452
same,Replicate_2,"sheet LOPAC_screen_w_protease, LOPAC1280 primary screen with protease, 5 µM compound, replicate 2",4.228
C[C@@](Cc1ccc(O)c(O)c1)(NN)C(=O)O [S-(-)-Carbidopa],mean (LOPAC screen with protease),[4],17.4897
same,Replicate_1 (LOPAC screen with protease),[5],19.273
same,Replicate_2 (LOPAC screen with protease),[6],15.7065
CCc1cc(Cl)c(O)c(C(=O)NC[C@@H]2CCCN2CC)c1OC.Cl [S-(-)-Eticlopride hydrochloride],mean (LOPAC_screen_w_protease),[7],2.005
same,Replicate_1 (LOPAC_screen_w_protease),[8],2.376
same,Replicate_2 (LOPAC_screen_w_protease),[9],1.635
[N-]=[N+]=Nc1ccc(C(=O)CSC[C@H](NC(=O)CC[C@H](N)C(=O)O)C(=O)NCC(=O)O)cc1 [S-(p-Azidophenacyl)glutathione],mean,[10],2.647
same,Replicate_1,[11],2.672
same,Replicate_2,[12],2.621
Br.CCSC(=N)N [S-Ethylisothiourea hydrobromide],mean,[13],1.099
same,Replicate_1,[14],2.674
same,Replicate_2,[15],-0.4768
CSC(N)=NCCC[C@H](N)C(=O)O [S-Methyl-L-thiocitrulline acetate],inhibition at 5 µM,"sheet LOPAC_screen_w_protease, primary screen with protease, compound at 5 µM, mean of two replicates, read-out: mean",2.62%
same,inhibition at 5 µM,"sheet LOPAC_screen_w_protease, primary screen with protease, compound at 5 µM, replicate 1, read-out: Replicate_1",2.21%
same,inhibition at 5 µM,"sheet LOPAC_screen_w_protease, primary screen with protease, compound at 5 µM, replicate 2, read-out: Replicate_2",3.04%
Cl.Cn1ccc2cc(NC(=O)Nc3cccnc3)ccc21 [SB 200646 hydrochloride],mean,[10],2.882
same,Replicate_1,[11],2.958
same,Replicate_2,[12],2.805
Oc1ccc(-c2nc(-c3ccncc3)c(-c3ccc(F)cc3)[nH]2)cc1 [SB 202190],inhibition at 5 µM,"sheet LOPAC_screen_w_protease, primary screen with protease, mean of two replicates, read-out: mean",2.45%
same,inhibition at 5 µM,"sheet LOPAC_screen_w_protease, primary screen with protease, replicate 1, read-out: Replicate_1",1.31%
same,inhibition at 5 µM,"sheet LOPAC_screen_w_protease, primary screen with protease, replicate 2, read-out: Replicate_2",3.6%
O=C(OCCN1CCCCC1)c1c[nH]c2ccccc12 [SB 203186],mean,[10],2.639
same,Replicate_1,[11],2.947
same,Replicate_2,[12],2.331
CCCCN1CCC(COC(=O)c2cc(Cl)c(N)c3c2OCCO3)CC1.Cl [SB 204070 hydrochloride],mean,[16],2.545
same,Replicate_1,[17],1.507
same,Replicate_2,[18],3.5833
Cc1cc(NC(=O)Nc2ccc3c(ccn3C)c2)sn1 [SB 204741],mean,[1],0.4215
same,Replicate_1,[2],0.3793
same,Replicate_2,[3],0.4638
CC#CCOC(=O)c1c(C)nc2sc3c(c2c1N)CCC(O)C3 (stereo not drawn) [SB 205384],mean,"sheet LOPAC_screen_w_protease, LOPAC1280 primary screen at 5 µM, with protease, mean of two replicates",-1.612
same,Replicate_1,[19],2.126
same,Replicate_2,[20],-5.349
Cn1ccc2cc3c(cc21)CCN3C(=O)Nc1cccnc1 [SB 206553 hydrochloride],mean,[10],2.821
same,Replicate_1,[11],3.909
same,Replicate_2,[12],1.733
Cn1cc(C2=C(c3ccc(Cl)cc3Cl)C(=O)NC2=O)c2ccccc21 [SB 216763],inhibition at 5 µM,"sheet LOPAC_screen_w_protease, primary screen at 5 µM, mean of two replicates, read-out: mean (LOPAC screen with protease)",6.45%
same,inhibition at 5 µM,"sheet LOPAC_screen_w_protease, primary screen at 5 µM, replicate 1, read-out: Replicate_1 (LOPAC screen with protease)",5.91%
same,inhibition at 5 µM,"sheet LOPAC_screen_w_protease, primary screen at 5 µM, replicate 2, read-out: Replicate_2 (LOPAC screen with protease)",6.98%
COC(=O)[C@H](NC(=O)c1cc(-c2ccccc2)nc2ccccc12)c1ccccc1 [SB 218795],mean,[21],0.7338
same,Replicate_1,[19],2.781
same,Replicate_2,[20],-1.313
CC[C@H](NC(=O)c1c(C)c(-c2ccccc2)nc2ccccc12)c1ccccc1 [SB 222200],inhibition at 5 µM,[22],1.71%
same,inhibition at 5 µM,[23],1.28%
same,mean (LOPAC_screen_w_protease),"LOPAC1280 primary screen with protease, 5 µM compound, mean of two replicates",1.495
Cc1nc(-c2ccc(-c3ccc(C(=O)N4CCc5cc6c(cc54)C4(CCN(C)CC4)CO6)cc3)c(C)c2)no1.Cl [SB 224289 hydrochloride],mean,[13],1.002
same,Replicate_1,[14],2.397
same,Replicate_2,[15],-0.3926
COc1cc2c(cc1C(F)(F)F)N(C(=O)Nc1cc(F)cc(-c3cccnc3)c1)CC2 [SB 228357],mean,[16],2.5367
same,Replicate_1,[17],3.509
same,Replicate_2,[18],1.565
CC1CCN(CC[C@H]2CCCN2S(=O)(=O)c2cccc(O)c2)CC1.Cl [SB 269970 hydrochloride],mean (LOPAC_screen_w_protease),[7],2.103
same,Replicate_1 (LOPAC_screen_w_protease),[8],1.356
same,Replicate_2 (LOPAC_screen_w_protease),[9],2.851
COc1cccc(NC(=O)/C=C/c2ccc(Cl)cc2)c1 [SB-366791],mean,[16],2.336
same,Replicate_1,[17],3.003
same,Replicate_2,[18],1.669
CC(=O)NNC(=O)N1Cc2ccccc2Oc2ccc(Cl)cc21 [SC 19220],mean,[1],0.1868
same,Replicate_1,[2],1.1062
same,Replicate_2,[3],-0.7326
Cc1nc2c(OCc3ccccc3)cccn2c1CC#N [SCH-28080],mean,[16],2.443
same,Replicate_1,[17],2.6463
same,Replicate_2,[18],2.24
Br.CN=c1nc(-c2ccccc2)n(-c2ccccc2)s1 [SCH-202676 hydrobromide],mean (LOPAC screen with protease),[4],100.647
same,Replicate_1 (LOPAC screen with protease),[5],100.647
same,Replicate_2 (LOPAC screen with protease),[6],100.647
"CCN(CC)CCOC(=O)c1cc(Cl)c(N)cc1OC.Cl [SDZ-205,557 hydrochloride]",mean,[10],2.714
same,Replicate_1,[11],3.796
same,Replicate_2,[12],1.633
Cc1ccc(O)c(N=Nc2ccccc2)n1 [SIB 1757],mean,[16],2.268
same,Replicate_1,[17],3.235
same,Replicate_2,[18],1.301
Cc1cccc(/C=C/c2ccccc2)n1 [SIB 1893],mean,[1],0.4194
same,Replicate_1,[2],2.242
same,Replicate_2,[3],-1.403
Br.CN1CCc2cc(O)c(O)cc2C(c2ccccc2)C1 (stereo not drawn) [SKF 75670 hydrobromide],mean (LOPAC screen with protease),[4],25.5455
same,Replicate_1 (LOPAC screen with protease),[5],25.015
same,Replicate_2 (LOPAC screen with protease),[6],26.0759
Br.CN1CCc2c(cc(O)c(O)c2Cl)C(c2cccc(Cl)c2)C1 (stereo not drawn) [SKF 83565 hydrobromide],mean (LOPAC screen with protease),[4],22.1474
same,Replicate_1 (LOPAC screen with protease),[5],23.5852
same,Replicate_2 (LOPAC screen with protease),[6],20.7095
Br.Cc1cccc(C2CN(C)CCc3c2cc(O)c(O)c3Cl)c1 (stereo not drawn) [SKF 83959 hydrobromide],mean (LOPAC screen with protease),[4],8.7281
same,Replicate_1 (LOPAC screen with protease),[5],9.112
same,Replicate_2 (LOPAC screen with protease),[6],8.344
CN1CCc2cccc(Cl)c2CC1 [SKF 86466],inhibition at 5 µM,[24],0.452%
same,inhibition at 5 µM,[25],0.136%
same,inhibition at 5 µM,[26],0.768%
Cl.O=C(O)C1CCCN(CCC=C(c2ccccc2)c2ccccc2)C1 (stereo not drawn) [SKF 89976A hydrochloride],mean,[21],0.532
same,Replicate_1,[19],1.548
same,Replicate_2,[20],-0.4841
CN(C)CCCCSC(=N)N.Cl.Cl [SKF 91488 dihydrochloride],mean (LOPAC screen with protease),[4],12.1431
same,Replicate_1 (LOPAC screen with protease),[5],13.4504
same,Replicate_2 (LOPAC screen with protease),[6],10.8358
CN/C(=N\c1ccc(C2=NNC(=O)CC2C)cc1)NC#N (stereo not drawn) [SKF 94836],inhibition at 5 µM,[24],0.836%
same,inhibition at 5 µM,[25],1.39%
same,inhibition at 5 µM,[26],0.284%
O=C(O)/C=C\C(=O)O.O=C(O)/C=C\C(=O)O.c1cc(CN2CCCCC2)cc(OCCCNc2nc3ccccc3s2)c1 [SKF 95282 dimaleate],mean,[13],0.9471
same,Replicate_1,[14],0.9833
same,Replicate_2,[15],0.911
COc1ccc(CCCOC(Cn2ccnc2)c2ccc(OC)cc2)cc1 (stereo not drawn) [SKF 96365],inhibition at 5 µM,[22],1.52%
same,inhibition at 5 µM,[23],2.09%
same,mean (LOPAC_screen_w_protease),[7],1.802
